Patent US20230331718A1, “COMPOSITIONS FOR MODULATING SPLICING” (Skyhawk Therapeutics, Inc., priority 2020, published 2023)

How the values were obtained:
SMN2 Protein = experiment: SMN Protein Assay (MSD); type: cell-based, human; conditions: SMA patient fibroblasts, 48 hours, 0.6 nM to 2.5 µM
Summary of the method: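 SMA patient fibroblasts at 7,000 cells/well treated 48 h with compound from 0.6 nM to 2.5 µM, then lysed. SMN protein in lysate quantified by Mesoscale Discovery immunoassay against an SMN standard curve (19.5 pg/ml–1 µg/ml), giving absolute amounts.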

[1] = tested on: SMN2 Splicing D7 (SMN Δ7 transcript); experiment: SMN Quantitative Splicing Assay (qPCR); type: cell-based, human; conditions: Homo sapiens, Fibroblast, 24 h, SMA patient fibroblasts (GM03813), 2.5 µM to 0.6 nM
Experimental: Spinal muscular atrophy (SMA) patient fibroblasts (GM03813, Coriell) were plated in 96-well plates at 50,000 cells/well. […] Treated cells were lysed and cDNA synthesized using the Fast Advanced Cells-to-Ct kit (Thermofisher A35378) according to the manufacturer’s instructions. 2 µL of each cDNA were used in qPCR reactions. […] Reactions were run in a Quant Studio 6 qPCR instrument with default settings.

Row | Structure (SMILES) | EC50 (SMN2 Protein) [nM] | IC50 [1] [nM]
1 | Cc1cc(=O)c2cc(-c3ncc(N(C)[C@H]4C[C@@H]5CCC[C@@H](N5)[C@H]4F)nn3)c(O)cc2o1 [Compound 112] | 16 to 50 | 16 to 50
2 | CN(c1cnc(-c2cc3cccnc3cc2O)nn1)C1CC2CCC(N2)[C@@H]1F (stereo partly shown) [Compound 23] | 501 to 10000 | 101 to 500
3 | Cc1c(F)c2cc(-c3ncc(N(C)[C@H]4C[C@@H]5CC[C@@H](N5)[C@H]4F)nn3)c(O)cc2c(=O)n1C [Compound 204] | 0.01 to 15 | 0.01 to 15
4 | Cc1cnc2cc(-c3ncc(N(C)[C@H]4C[C@@H]5CCC(N5)[C@H]4F)nn3)c(O)cc2n1 (single isomer, unassigned) [Compound 54] | 101 to 500 | 16 to 50
5 | Cc1cnc2cc(O)c(-c3ncc(N(C)[C@H]4C[C@@H]5CCC(N5)[C@H]4F)nn3)cc2n1 [Compound 52] | 0.01 to 15 | 16 to 50
6 | CCn1cnc2cc(-c3ncc(N(C)C4CC5CCC(N5)[C@H]4F)nn3)c(O)cc2c1=O (stereo partly shown) [Compound 32] | 0.01 to 15 | 0.01 to 15
7 | Cc1coc2cc(-c3ncc(N(C)C4CC5CCC(N5)[C@@H]4F)nn3)c(O)cc2c1=O (stereo partly shown) [Compound 27] | 0.01 to 15 | 0.01 to 15
8 | [2H]C([2H])([2H])n1ncc2cc(-c3ncc(N(C)[C@H]4C[C@@H]5CCC(N5)[C@H]4F)nn3)c(O)cc2c1=O [Compound 181] | 0.01 to 15 | 0.01 to 15
9 | CN(c1cnc(-c2cc3occc(=O)c3cc2O)nn1)[C@H]1C[C@]2(C)CC[C@@](C)(N2)[C@H]1F [Compound 62] | 0.01 to 15 | 0.01 to 15
10 | CN(c1cnc(-c2cc3occc(=O)c3cc2O)nn1)[C@H]1C[C@@H]2CCC(N2)[C@H]1F [Compound 18] | 0.01 to 15 | 0.01 to 15
11 | [2H]C([2H])([2H])N(c1cnc(-c2cc3ncn(C([2H])([2H])[2H])c(=O)c3cc2O)nn1)[C@@H]1CC2CC[C@H](N2)[C@@H]1F [Compound 176] | 0.01 to 15 | 16 to 50
12 | CN(c1cnc(-c2cc3c(F)cn(C)c(=O)c3cc2O)nn1)[C@H]1C[C@@H]2CCC(N2)[C@H]1F [Compound 66, 4-Fluoro-6-(6-{[(2R,3S,5S)-2-fluoro-8-azabicyclo[3.2.1]octan-3-yl](methyl)amino}-1,2,4-triazin-3-yl)-7-hydroxy-2-methylisoquinolin-1-one] | 0.01 to 15 | 0.01 to 15
13 | CN(c1cnc(-c2cc3nccnc3cc2O)nn1)[C@@H]1CC2CC[C@H](N2)[C@@H]1F [Compound 19] | 101 to 500 | 101 to 500
14 | Cc1cnc2cc(O)c(-c3ncc(N(C)[C@H]4CC5CCCC(N5)[C@H]4F)nn3)cc2n1 (stereo partly shown) [Compound 160] | 101 to 500 | 101 to 500
15 | Cc1ncc2cc(-c3ncc(N(C)[C@H]4C[C@@H]5CCC(N5)[C@H]4F)nn3)c(O)cc2n1 [Compound 72] | 51 to 100 | 51 to 100
16 | Cc1nc2cc(O)c(-c3ncc(N(C)[C@H]4C[C@@H]5CCC(N5)[C@H]4F)nn3)cc2nc1C [Compound 56] | 16 to 50 | 0.01 to 15
17 | Cc1cc(=O)c2cc(-c3ncc(N(C)[C@@H]4CC5CCCC(N5)[C@@H]4F)nn3)c(O)cc2o1 (stereo partly shown) [Compound 111] | 51 to 100 | 101 to 500
18 | Cc1cc2cc(O)c(-c3ncc(N(C)[C@@H]4CC5CCC(N5)[C@@H]4F)nn3)cc2cn1 (stereo partly shown) [Compound 45] | 16 to 50 | 16 to 50
19 | CCc1cc(=O)c2cc(-c3ncc(N(C)[C@H]4C[C@@H]5CCCC(N5)[C@H]4F)nn3)c(O)cc2o1 [Compound 116] | 16 to 50 | 51 to 100
20 | CN(c1cnc(-c2cc3cc[nH]c(=O)c3cc2O)nn1)[C@@H]1CC2CC[C@H](N2)[C@@H]1F [Compound 170] | 16 to 50 | 51 to 100
21 | [2H]C([2H])([2H])C([2H])([2H])n1cc(F)c2cc(-c3ncc(N(C)[C@H]4CC5CCC(N5)[C@H]4F)nn3)c(O)cc2c1=O (stereo partly shown) [Compound 208] | 0.01 to 15 | 0.01 to 15
22 | CCn1cnc2cc(-c3ncc(N(C)C4CC5CCC(N5)[C@@H]4F)nn3)c(O)cc2c1=O (stereo partly shown) [Compound 31] | 51 to 100 | 51 to 100
23 | CN(c1cnc(-c2cc3c(=O)n(C)cnc3cc2O)nn1)C1CC2CCC(N2)[C@H]1F (stereo partly shown) [Compound 139] | 0.01 to 15 | 16 to 50
24 | Cc1cc(=O)c2cc(O)c(-c3ncc(N(C)C4CC5CCCC(N5)C4F)nn3)cc2o1 (stereo not shown) [Compound 128] | 0.01 to 15 | 16 to 50
25 | CN(c1cnc(-c2cc3c(F)cn(C)c(=O)c3cc2O)nn1)[C@@H]1C[C@@]2(C)CCC(N2)[C@@H]1F [Compound 37] | 0.01 to 15 | 0.01 to 15
26 | CN(c1cnc(-c2cc3cnn(C)c(=O)c3cc2O)nn1)[C@H]1C[C@]2(C)CCC(N2)[C@H]1F [Compound 185] | 0.01 to 15 | 0.01 to 15
